What was measured:
[1] = target: MYO3B (human) (UniProt Q8WXR4); assay: radiometric filter-binding kinase assay, Kinase HotSpot; settings: compound 0.5 µM; ATP 10 µM
[2] = target: PRKACG (human) (UniProt P22612); assay: as above; settings: compound 0.5 µM; ATP 10 µM
Chain of PRKACG (human) (P22612 whole entry, looked up): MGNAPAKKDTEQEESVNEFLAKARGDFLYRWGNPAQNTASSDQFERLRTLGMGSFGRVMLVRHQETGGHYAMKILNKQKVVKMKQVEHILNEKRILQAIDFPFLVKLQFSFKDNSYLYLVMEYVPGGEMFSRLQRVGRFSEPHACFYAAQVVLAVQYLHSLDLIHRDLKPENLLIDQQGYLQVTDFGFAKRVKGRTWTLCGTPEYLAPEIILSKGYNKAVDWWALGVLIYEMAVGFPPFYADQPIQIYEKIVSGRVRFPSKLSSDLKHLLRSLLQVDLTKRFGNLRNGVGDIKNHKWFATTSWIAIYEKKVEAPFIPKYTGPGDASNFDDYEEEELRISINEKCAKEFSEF

Chain of MYO3B (human) (Q8WXR4 whole entry, looked up): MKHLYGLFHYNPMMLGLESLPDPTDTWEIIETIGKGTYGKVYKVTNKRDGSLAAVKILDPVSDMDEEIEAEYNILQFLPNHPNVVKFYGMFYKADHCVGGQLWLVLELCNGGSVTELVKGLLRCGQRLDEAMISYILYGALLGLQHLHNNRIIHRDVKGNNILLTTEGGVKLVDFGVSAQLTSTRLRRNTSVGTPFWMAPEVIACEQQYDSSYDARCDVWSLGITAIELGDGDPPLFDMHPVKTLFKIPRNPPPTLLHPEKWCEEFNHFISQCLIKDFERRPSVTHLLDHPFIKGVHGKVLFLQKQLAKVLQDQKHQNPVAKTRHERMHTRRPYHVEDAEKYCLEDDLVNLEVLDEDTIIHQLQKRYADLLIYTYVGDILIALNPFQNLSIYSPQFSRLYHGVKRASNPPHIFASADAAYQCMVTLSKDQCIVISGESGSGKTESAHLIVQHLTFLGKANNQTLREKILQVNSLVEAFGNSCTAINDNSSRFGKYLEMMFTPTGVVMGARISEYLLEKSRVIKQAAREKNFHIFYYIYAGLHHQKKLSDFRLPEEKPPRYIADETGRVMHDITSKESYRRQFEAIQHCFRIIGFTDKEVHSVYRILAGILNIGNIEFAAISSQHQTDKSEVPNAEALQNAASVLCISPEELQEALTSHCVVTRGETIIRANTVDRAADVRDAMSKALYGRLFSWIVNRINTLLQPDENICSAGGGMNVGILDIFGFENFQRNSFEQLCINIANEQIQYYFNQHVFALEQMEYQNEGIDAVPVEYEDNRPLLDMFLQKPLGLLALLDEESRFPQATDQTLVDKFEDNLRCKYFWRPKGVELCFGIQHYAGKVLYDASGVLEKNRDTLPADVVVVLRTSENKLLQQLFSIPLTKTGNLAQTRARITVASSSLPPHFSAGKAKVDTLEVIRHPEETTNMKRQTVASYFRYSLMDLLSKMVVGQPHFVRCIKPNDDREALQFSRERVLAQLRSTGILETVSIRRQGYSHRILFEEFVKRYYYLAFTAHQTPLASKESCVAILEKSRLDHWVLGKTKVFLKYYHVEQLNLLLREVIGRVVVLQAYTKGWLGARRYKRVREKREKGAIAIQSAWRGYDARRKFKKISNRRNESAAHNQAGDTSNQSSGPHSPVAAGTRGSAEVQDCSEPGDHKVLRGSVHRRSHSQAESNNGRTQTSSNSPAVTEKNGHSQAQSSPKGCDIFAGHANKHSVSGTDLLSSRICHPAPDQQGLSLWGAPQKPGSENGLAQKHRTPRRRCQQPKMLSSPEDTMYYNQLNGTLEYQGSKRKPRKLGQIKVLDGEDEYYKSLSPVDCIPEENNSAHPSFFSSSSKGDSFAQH

Structure (SMILES): CN(C)S(=O)(=O)c1ccc2c(c1)/C(=C/c1cc3c([nH]1)CCCC3)C(=O)N2
- residual activity [1]: 98.9%
- residual activity [2]: 114%

Structure (SMILES): COc1ccc2c(c1)/C(=C/c1cnc[nH]1)C(O)=N2
- residual activity [1]: 88%
- residual activity [2]: 110%

Structure (SMILES): Cc1cccc(-c2nc(C(C)(C)C)[nH]c2-c2ccc3c(c2)OCO3)n1
- residual activity [1]: 79.2%
- residual activity [2]: 119%

Structure (SMILES): COc1cc(Nc2c(C#N)cnc3cc(OCCCN4CCN(C)CC4)c(OC)cc23)c(Cl)cc1Cl
- residual activity [1]: 40.3%
- residual activity [2]: 99.2%

Structure (SMILES): N#Cc1c[nH]c2c[nH]/c(=N\Cc3cccnc3)cc2/c1=N\c1ccc(F)c(Cl)c1
- residual activity [1]: 87.9%
- residual activity [2]: 115%

Structure (SMILES): O=C1Nc2ccc(Br)cc2/C1=C\c1cc2c([nH]1)CCCC2
- residual activity [1]: 55.1%
- residual activity [2]: 98.1%

Structure (SMILES): CO[C@@H]1[C@H](N(C)C(=O)c2ccccc2)C[C@H]2O[C@]1(C)n1c3ccccc3c3c4c(c5c6ccccc6n2c5c31)C(=O)NC4
- residual activity [1]: 53.7%
- residual activity [2]: 58.1%

Structure (SMILES): CS(=O)(=O)CCNCc1ccc(-c2ccc3ncnc(Nc4ccc(OCc5cccc(F)c5)c(Cl)c4)c3c2)o1
- residual activity [1]: 96.1%
- residual activity [2]: 110%

Structure (SMILES): Cc1nc(-c2ccccc2)c(-c2ccncc2)o1
- residual activity [1]: 108%
- residual activity [2]: 108%

Structure (SMILES): COc1ccc(S(=O)(=O)N(CCO)c2ccccc2CN(C)C/C=C/c2ccc(Cl)cc2)cc1
- residual activity [1]: 90.2%
- residual activity [2]: 104%

Structure (SMILES): C[C@@H]1CCN(C(=O)CC#N)C[C@@H]1N(C)c1ncnc2[nH]ccc12
- residual activity [1]: 89.3%
- residual activity [2]: 111%

Structure (SMILES): O=C1C(Cl)=C(N2C(=O)CCC2=O)C(=O)c2ccccc21
- residual activity [1]: 112%
- residual activity [2]: 95.1%

Structure (SMILES): Cc1cncc2cccc(S(=O)(=O)N3CCCN(C(=O)CN)C[C@H]3C)c12
- residual activity [1]: 104%
- residual activity [2]: 112%

Structure (SMILES): Fc1ccc(-c2nc3n(c2-c2ccncc2)CCS3)cc1
- residual activity [1]: 102%
- residual activity [2]: 116%

Structure (SMILES): c1ccc2c(-c3ccncc3)c[nH]c2c1
- residual activity [1]: 96.4%
- residual activity [2]: 107%

Structure (SMILES): N#C/C(=C\c1ccc(O)c(O)c1)C(=O)NCc1ccccc1
- residual activity [1]: 88.3%
- residual activity [2]: 90.7%

Structure (SMILES): COc1cc2ncnc(Nc3ccc(Oc4ccccc4)cc3)c2cc1OC
- residual activity [1]: 103%
- residual activity [2]: 137%

Structure (SMILES): O=C1c2ccccc2-c2nc3nnnn3nc21
- residual activity [1]: 88.4%
- residual activity [2]: 88.5%

Reference: the kinase profiling compilation of Christmann-Franck et al. (2016)
